Common to all, as to assay type: physicochemical
The nature of data set [1]: Destruction test: impurities in raw materials before destruction (HPLC). An excerpt:
The methods of destruction experiment of the Polymorph I of this invention (hereinafter referred to as “Polymorph I”) contrasting with the Polymorph A and B of 3-(4-amino-1-oxo-1,3-dihydro-2H-isoindole-2-yl)-piperidine-2,6-dione prepared by the method in CN 1871003A (hereinafter referred to as “Polymorph A” and “polymorph B”) and results of stability are followed:
(§1) HPLC conditions and system applicability: octadecylsilane bonded silica as the filler; 0.01 mol/L of potassium dihydrogen phosphate (adjusted to pH 3.5 by phosphoric acid)-methanol-acetonitrile (80:15:5) as the mobile phase; detection wavelength was 240 nm; the number of theoretical plates should be not less than 2000, calculated according to the peak of lenalidomide. The resolution of the peak of 3-(4-amino-1-oxo-1,3-dihydro-2H-isoindole-2-yl)-piperidine-2,6-dione from the peaks of adjacent impurities should meet requirements.
(§2) Determination method: sample was dissolved in mobile phase to be the solution containing 0.5 mg per 1 mL. 20 μL of such solution was injected into liquid chromatograph and chromatogram was recorded until fourfold the retention time of major component peak. If there were impurities peaks in the chromatogram of sample solution, total impurities and sole impurity were calculated by normalization method on the basis of peak area.

Data set [2] is described as follows: Acid destruction (0.1 mol/L HCl), related substances by HPLC. The protocol: Acid destruction: 50 mg of sample weighted accurately was added into measuring flask of 100 mL, and 10 mL 0.1 mol/L HCl solution was added. After standing at room temperature for 1 hour, an equal amount of 0.1 mol/L NaOH solution was added for neutralization. Then the mixture was diluted with mobile phase to scale and shook to be homogeneous, and determined by HPLC.
as §1, §2

The nature of data set [3]: Oxidation destruction (30% H2O2), related substances by HPLC. The protocol:
Oxidation destruction: 50 mg of sample weighted accurately was added into measuring flask of 100 mL, and 10 mL 30% H2O2 was added. After standing at room temperature for 2 hour, the mixture was diluted with mobile phase to scale and shook to be homogeneous, and determined by HPLC.
as §1, §2

[4] abbreviates: 0.1 mol/L HCl, room temperature, 1 hour.
Where [5] appears, read: 30% H2O2, room temperature, 2 hour.

Consider 1 compound from US9101620B2, “Polymorph of 3-(substituteddihydroisoindolinone-2-yl)-2,6-dioxopiperidine, and pharmaceutical compositions thereof” (Nanjing Cavendish Bio-Engineering Technology Co., Ltd., priority 2009, dated 2015).

Consider `Nc1cccc2c1CN(C1CCC(=O)NC1=O)C2=O` (single isomer, unassigned) [Polymorph I, 3-(4-amino-1-oxo-1,3-dihydro-2H-isoindole-2-yl)-piperidine-2,6-dione], for which, in data set [1], the “Major impurity, peak tR5.872-5.948” value was 0.01% and the “Major impurity, peak tR10.961-11.165” value was 0.03%. Further, the “Total impurities in raw materials before destruction” value in data set [1] (HPLC peak area normalization) is on record as “impurities: 0.04%”. Also, in data set [2] (setting [4]), the “Major impurity, peak tR4.717-4.737” value was 0.20%; the “Major impurity, peak tR7.367-7.381” value is 0.41%; the “Major impurity, peak tR11.067-11.100” value is 0.01%; the “Total impurities generated by 0.1 mol/L acid destruction for 1 hour” value is on record as “impurities: 0.62%”. Moreover, the “Chemical stability (in words)” value in data set [2] (acid condition / 0.1 mol/L diluted HCl solution) is recorded as “better stability”. Further, in data set [3] (setting [5]), the “Major impurity, peak tR5.649-5.660” value came to 0.09%; the “Major impurity, peak tR10.372-10.401” value is 0.03%; the “Major impurity, peak tR32.279-32.318” value is given as 0.01%; the “Major impurity, peak tR35.063-35.098” value worked out at 0.02%. Moreover, the “Total impurities generated by oxidation destruction” value in data set [3] (setting [5]) was “impurities: 0.16%”. The “Chemical stability (in words)” value in data set [3] (oxidating condition / oxidation destroy experiment) was “better stability”.
